Measured values: patent US9321849B2, “Uranium-chelating peptides and uses thereof” (priority 2003, dated 2016)
Like-named read-outs stand apart in the source and are kept apart here.

What was measured:
[1] = TRLS titration of uranyl nitrate with calmodulin, Dynafit simulation; assay type: binding; settings: 0.4 μM uranyl nitrate, 1.0 mM phosphate buffer pH 7.0, two-site simulation
Description: (§1) The coordination of uranium (in uranyl form, 2.0 μM) by the native protein in 1 mM phosphate medium was also studied. The complexation of uranium with the protein is reflected by a drop in uranyl fluorescence intensity. The titration spectra are represented in FIG. 13. In another experiment, a 0.4 μM solution of uranyl nitrate in a 1.0 mM phosphate buffer (pH 7.0) was titrated with a solution of calmodulin up to a protein concentration of 8 μM. After the addition of 8 μM of calmodulin, calcium ions were added up to the concentration of 8 mM (FIG. 14). The values for the titration of uranyl by calmodulin were interpreted by simulating the experimental data with a system of equations corresponding to one, two, three or four independent sites for uranium (FIG. 16). The Dynafit software (Kuzmic, P. 1996, Anal. Biochem. 237, 260-273) was used for these simulations. […] The values for competition with the calcium ions were also interpreted with a system of suitable equations and the simulation of the experimental points with this system is given in FIG. 17. […] It is also considered, as a hypothesis, that each of these two sites is independent of the other. […]

[2] = Competition between calcium and uranyl for calmodulin, Dynafit simulation; assay type: binding; settings: 8 μM calmodulin, 0.4 μM uranyl, calcium up to 8 mM
Description: as §1

[3] = system: MLCKp peptide (calmodulin-binding domain of myosin light chain kinase); assay: Tryptophan fluorescence of the MLCKp ligand peptide in the presence of calmodulin; set-up: species or system rabbit; settings: 5 μM MLCKp
Description: The fluorescence spectra are recorded on a Cary Eclipse spectrometer (Varian, France) equipped with a thermostated cuvette holder. The excitation wavelength used is 280 nm with slot widths of 10 nm for excitation and of 2.5 nm for emission. The spectra are recorded between 300 nm and 450 nm in a cuvette with a 1 cm optical path.
In the presence of calcium, calmodulin can bind and activate a large diversity of targets. Among these, the MLCKp peptide, which has 17 residues and is derived from the calmodulin-binding domain of a rabbit muscle myosin light chain kinase (CALBIOCHEM), has the following sequence:
In a first series, a fluorescence spectrum for the tryptophan of the ligand, dissolved at a concentration of 5 μM in a 10 mM MES buffer, at pH 6.5, was recorded as described in example 1.
Excitation of the solution at 280 nm makes it possible to detect an emission at 350 nm, characteristic of a tryptophan exposed to the aqueous solvent.
This is compatible with a structure similar to that obtained in the case of calcium. […] The emission detected is then that of the metal (λ>450 nm) and no longer that of the tryptophan.

calmodulin
Kd ([1]; read-out: dissociation constant, uranyl, first of two high-affinity sites): 3300 ± 400 nM | Kd ([1]; read-out: dissociation constant, uranyl, second of two high-affinity sites): 720 ± 200 nM | displacement of uranium by calcium [2]: just one of the two sites complexed with uranium is displaced by calcium | increase in intensity of ligand tryptophan fluorescence ([3]; 10 mM MES pH 6.5, one equivalent of calmodulin, absence of metals): 25% | increase in intensity of ligand tryptophan fluorescence ([3]; one equivalent of calmodulin, 10 equivalents of calcium): 20% | ligand tryptophan fluorescence in the presence of uranyl ([3]; one equivalent of calmodulin, uranyl): complete extinction of the fluorescence
